Data set [1] is described as follows: In vitro liver microsomal metabolism study, mouse. To be noted: mouse liver microsomes. The data set is classed as in vitro ADME. Here is the method: Metabolic stability was assessed by incubating compounds in the presence of human, rat, and mouse liver microsomal fractions (Xenotech, Kansas City, KS, USA). All chemicals and reagents, including control compounds, were purchased from commercial sources such as Sigma-Aldrich (St. Louis, MO, USA) or Toronto Research Chemicals (North York, ON, Canada). Liver microsomal incubations were conducted with 100 mM phosphate buffer, 0.5 mg/mL of liver microsomal protein, 2 mM NADPH, 2.5 mM UDPGA, 3 mM MgCl2, alamethicin, and 1 μM test article for a total incubation volume of 80 µL. All reagents except the liver microsomes were mixed together and aliquoted (60 μL) into 96-well plates. The reaction was initiated by adding the microsomes (20 μL). At 0, 3, 7, 12, 20, and 30 min time points, the reactions were terminated with the addition of acetonitrile-containing carbutamide (as an internal standard). The terminated samples were then centrifuged at 2 °C to pellet the protein and the supernatant was injected onto an LC–MS. The test article was monitored for loss over time and the t1/2 was determined. The calculated t1/2 was then used as described below to determine the Eh (hepatic extraction ratio) for both human and rat.
The intrinsic clearance (CLint), hepatic clearance (CLh), and hepatic extraction ratio (Eh) were calculated using the equations below. CLint = (0.693/t1/2 in vitro) × (mL incubation volume/mg microsomal protein) × (X mg of microsomal protein/gram of liver) × (Y g of liver/kg of body weight)(1) CLh = Q × CLint/Q + CLint(2) Eh = CLh/Q(3) where: • CLint = intrinsic clearance (calculated from microsomal incubations) • X = 40 for human, 41.5 for rat and 45 for mouse • Y = 21.4 for human, 40 for rat and 50 for mouse • t1/2 = half-life • CLh = hepatic clearance • Q = liver blood flow rate = 1.24 L/h/kg for human, 4.8 L/h/kg for rat, and 5.4 L/h/kg for mouse • Eh = hepatic extraction ratio • CLh = hepatic clearance
(Microsomes from liver hold many membrane-bound enzymes, among them those of drug oxidation.)

In data set [2] the target is T1, Chinese hamster ovary cell-derived wild type aGal A (CHO aGal A) (Homo sapiens, UniProt P06280).
T1 construct: host or cells: Chinese hamster ovary (CHO) cells
T1 sequence (P06280 32-429): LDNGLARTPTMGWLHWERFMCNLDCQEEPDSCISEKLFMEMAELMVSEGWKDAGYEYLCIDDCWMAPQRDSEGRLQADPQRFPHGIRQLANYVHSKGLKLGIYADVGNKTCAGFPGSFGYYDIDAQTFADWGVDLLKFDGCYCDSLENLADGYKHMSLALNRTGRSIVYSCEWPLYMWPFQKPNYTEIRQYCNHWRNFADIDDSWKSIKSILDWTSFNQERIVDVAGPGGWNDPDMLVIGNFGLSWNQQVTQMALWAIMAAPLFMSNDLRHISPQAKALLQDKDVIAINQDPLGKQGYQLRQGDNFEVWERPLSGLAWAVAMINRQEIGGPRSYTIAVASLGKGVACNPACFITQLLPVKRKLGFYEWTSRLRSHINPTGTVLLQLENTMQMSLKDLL
The data set is described as follows: In vitro affinity assay: residual activity of CHO aGal A enzyme, hydrolysis of 4-methylumbelliferyl-α-D-galactopyranoside. The data set is classed as biochemical. The following applies: 1 nM enzyme, 30 min preincubation at room temperature, pH 4.6, 5 mM 4-MUGA substrate. Here is the method: Using an in vitro affinity assay, measurement of residual activity by preincubating the enzyme with varying concentrations of the probe confirmed that the [^19F]
Figure 5 Residual activity of CHO aGal A enzyme measured via hydrolysis of substrate 4−methylumbelliferyl−α−D−galactopyranoside after 30 min of preincubation with AGAL probe.
The IC50 assessment for the aGal inhibitors was performed using the fluorescent substrate in a McIlvaine buffer at pH 4.6. The CHO aGal A enzyme at 1 nM was pre-incubated with different concentrations of the inhibitor or DMSO as control for 30 min at room temperature. The fluorescent substrate 4-methylumbelliferyl-α-D-galactopyranoside (Research Products International company, catalog number M65400, Mount Prospect, IL, USA) was then added to a final concentration of 5 mM. The reaction was quenched with 0.5 M sodium bicarbonate buffer, with pH 10.5, and plates were read using a SpectraMax reader at excitation and emission wavelengths of 360 and 460 nm, respectively. Data were corrected for background fluorescence and IC50 calculation was performed using an inhibitory dose–response curve fitting in GraphPad Prizm 8.0.

Experimental findings from PMC10609273, “Radiosynthesis and Early Evaluation of a Positron Emission Tomography Imaging Probe [^18F]AGAL Targeting Alpha-Galactosidase A Enzyme for Fabry Disease” (Molecules, 2023) are described below.

The CLint scaled is a measure of how fast metabolising enzymes remove a compound, apart from limits set by blood flow. In general, IC50 refers to the concentration that gives 50% inhibition. Low values mean greater potency, high ones weaker potency.

In the case of `O=C(CCCCCCCn1cc(CCCF)nn1)N1[C@@H]2[C@H](O)[C@@H](O)[C@@H](O)[C@@H](CO)[C@@H]21` [AGAL], in data set [1], the CLh stood at 68.8 mL/min/kg; the “Eh (hepatic extraction ratio)” value is on record as 0.766; the “microsomal stability, clearance in words” value is “highly cleared”. The CLint scaled at 1 µM in data set [1] (1 μM, NADPH + UDPGA) was 293 mL/min/kg. The molecule further gave an IC50 in data set [2] of 30 nM.
